Test results taken from publication PMC2695604 (2009).

Molecular target: isoleucyl-tRNA synthetase (IleRS) (Escherichia coli, UniProt P00956)
Experiment: affinity labeling with saturation kinetics of inactivation
Format: biochemical

Sequence of isoleucyl-tRNA synthetase (IleRS) (P00956 2-938): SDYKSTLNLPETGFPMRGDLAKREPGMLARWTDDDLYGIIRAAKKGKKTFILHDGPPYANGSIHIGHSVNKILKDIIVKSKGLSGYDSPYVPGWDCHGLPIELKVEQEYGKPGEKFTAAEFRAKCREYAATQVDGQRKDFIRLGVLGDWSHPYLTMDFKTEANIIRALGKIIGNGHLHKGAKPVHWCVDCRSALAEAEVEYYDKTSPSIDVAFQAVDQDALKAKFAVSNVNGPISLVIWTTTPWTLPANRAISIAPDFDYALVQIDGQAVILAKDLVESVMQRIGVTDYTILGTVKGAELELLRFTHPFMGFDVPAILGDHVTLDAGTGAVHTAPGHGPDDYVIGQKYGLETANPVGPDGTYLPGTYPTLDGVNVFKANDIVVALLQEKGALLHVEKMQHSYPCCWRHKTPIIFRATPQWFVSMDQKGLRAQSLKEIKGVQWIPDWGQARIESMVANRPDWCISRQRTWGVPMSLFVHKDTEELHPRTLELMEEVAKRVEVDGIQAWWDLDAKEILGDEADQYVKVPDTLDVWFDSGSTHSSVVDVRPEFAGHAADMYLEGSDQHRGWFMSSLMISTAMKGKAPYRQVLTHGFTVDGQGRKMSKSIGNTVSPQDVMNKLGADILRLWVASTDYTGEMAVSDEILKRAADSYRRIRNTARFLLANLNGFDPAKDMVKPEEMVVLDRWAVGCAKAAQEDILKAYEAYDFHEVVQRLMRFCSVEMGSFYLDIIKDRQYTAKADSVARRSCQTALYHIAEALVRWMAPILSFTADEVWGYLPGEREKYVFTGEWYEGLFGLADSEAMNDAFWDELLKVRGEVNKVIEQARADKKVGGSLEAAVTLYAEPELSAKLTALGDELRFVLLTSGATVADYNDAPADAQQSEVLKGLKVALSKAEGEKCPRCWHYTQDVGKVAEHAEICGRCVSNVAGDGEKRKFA

CC[C@H](C)[C@H](N)C(=O)CBr [IBMK, L-isoleucine bromomethyl ketone]
KI (inactivation): ~100 µM
